Assay results taken from US20250296959A1, “B7-H3 TARGETING PEPTIDES AND CONSTRUCTS THEREOF” (Mariana Oncology Inc., priority 2024, published 2025).
Starred links: 1 amine or outer side, 2 acyl side, 3 side chain; linkers in the order of their positions; H or OH if unused. Positions of bridges follow the written chain, without caps; N, C: chain ends. Non-standard residues stand in square brackets, D forms with d. Residues, ends and D or L forms follow the SMILES beside them. Groups on a side chain read outwards from the residue. *: point of attachment. X4 = O=C(O)CN1CCN(CC(=O)O)CCN([C@H](CCC(=O)*)C(=O)O)CCN(CC(=O)O)CC1; Ala(piperidin-4-yl) = O=C([C@H](CC1CCN([*:3])CC1)N[*:1])[*:2]; DOTA = O=C(O)CN1CCN(CC(=O)O)CCN(CC(=O)*)CCN(CC(=O)O)CC1; Trp(4-OMe) = COc1cccc2[nH]cc(C[C@H](N)C(=O)O)c12; Trp(5-F) = N[C@@H](Cc1c[nH]c2ccc(F)cc12)C(=O)O; Trp(7-aza) = N[C@@H](Cc1c[nH]c2ncccc12)C(=O)O; X1 = C[C@@H](c1ccccc1)[C@H](N[*:1])C(=O)[*:2]; Lys(Me3) = C[N+](C)(C)CCCC[C@H](N)C(=O)O; γGlu = O=C(O)[C@H](CCC(=O)[*:2])N[*:1]; Ala(4-THP) = N[C@@H](CC1CCOCC1)C(=O)O; Gly(4-THP) = N[C@H](C(=O)O)C1CCOCC1; Val(3-OH) = CC(C)(O)[C@H](N)C(=O)O; hCha = N[C@@H](CCC1CCCCC1)C(=O)O; 4Pal = N[C@@H](Cc1ccncc1)C(=O)O; Cha = N[C@@H](CC1CCCCC1)C(=O)O; PEG4 = NCCOCCOCCOCCOCCC(=O)O; Tle = CC(C)(C)[C@H](N)C(=O)O; hLeu = CC(C)CC[C@H](N)C(=O)O; NMeS = CN[C@@H](CO)C(=O)O; Nle = CCCC[C@H](N)C(=O)O

Molecular target: T1, human 4lg B7-H3 (Homo sapiens, UniProt Q5ZPR3)
T1 sequence (Q5ZPR3 29-534): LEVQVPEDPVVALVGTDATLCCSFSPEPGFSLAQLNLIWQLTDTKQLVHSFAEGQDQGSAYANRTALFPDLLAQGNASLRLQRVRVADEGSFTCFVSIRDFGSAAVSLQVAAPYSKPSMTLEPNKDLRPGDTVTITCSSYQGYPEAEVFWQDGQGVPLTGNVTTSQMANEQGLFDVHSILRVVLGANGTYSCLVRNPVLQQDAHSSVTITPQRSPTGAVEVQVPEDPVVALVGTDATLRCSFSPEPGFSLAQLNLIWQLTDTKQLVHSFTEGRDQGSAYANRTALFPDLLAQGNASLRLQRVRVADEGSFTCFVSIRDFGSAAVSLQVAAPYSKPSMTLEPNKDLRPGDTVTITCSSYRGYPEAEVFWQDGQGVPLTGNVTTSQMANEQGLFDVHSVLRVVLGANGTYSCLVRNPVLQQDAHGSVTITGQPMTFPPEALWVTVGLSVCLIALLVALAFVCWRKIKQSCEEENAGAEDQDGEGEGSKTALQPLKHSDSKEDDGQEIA
Assay: Affinity determination by surface plasmon resonance (SPR) to 4Ig B7-H3
Details: 4Ig B7-H3

[1] = SPR KD—25° C., 25° C. flow cell temperature
[2] = SPR KD—37° C., 37° C. flow cell temperature

Row | Structure (SMILES) | Kd [1] | Kd [2]
1 | CCCC[C@H](NC(C)=O)C(=O)N[C@@H](Cc1ccc(O)cc1)C(=O)N[C@H]1CSSC[C@@H](C(=O)N[C@@H](Cc2c[nH]c3ccccc23)C(=O)N[C@@H](Cc2ccccc2)C(=O)N[C@H](C(=O)N[C@H](CCCCNC(=O)CN2CCN(CC(=O)O)CCN(CC(=O)O)CCN(CC(=O)O)CC2)C(N)=O)[C@@H](C)O)NC(=O)[C@H](Cc2ccc(O)cc2)NC(=O)[C@H](C(C)C)NC(=O)[C@H](CC(=O)O)NC(=O)[C@H](Cc2ccncc2)NC(=O)[C@H](CCCCN)NC(=O)CNC(=O)[C@H](C(C)C)NC1=O [compound 58, Ac-Nie-Y-C-V-G-K-4PyA-D-V-Y-C-W-F-Thr-dLys(DOTA)-CONH2] (Ac-[Nle]YCVGK[4Pal]DVYCWFT[dK](DOTA)-NH2; disulfide 3-11) | 0.001 to 0.01 µM | –
2 | CC(=O)N[C@@H](CCC(C)C)C(=O)N[C@@H](Cc1ccc(O)cc1)C(=O)N[C@H]1CSSC[C@@H](C(=O)N[C@@H](Cc2c[nH]c3ccc(F)cc23)C(=O)N[C@@H](Cc2ccccc2)C(=O)N[C@H](C(=O)N[C@H](CO)C(=O)O)C(C)(C)O)NC(=O)[C@H](Cc2ccc(O)cc2)NC(=O)[C@H](C(C)C)NC(=O)[C@H](CC(=O)O)NC(=O)[C@H](CC2CCN(C(=O)CN3CCN(CC(=O)O)CCN(CC(=O)O)CCN(CC(=O)O)CC3)CC2)NC(=O)[C@H](CC2CCNCC2)NC(=O)CNC(=O)[C@H](C(C)(C)C)NC1=O [compound 449, Ac-hLeu-Y-C-Tbg-G-PipAla-Pip(DOTA)Ala-D-V-Y-C-5FW-F-hydroxyVal-dSer-COOH] (Ac-[hLeu]YC[Tle]G[Ala(piperidin-4-yl)][Ala(piperidin-4-yl)](DOTA)DVYC[Trp(5-F)]F[Val(3-OH)][dS]-OH; disulfide 3-11) | – | < 0.001 µM
3 | CC[C@H](C)[C@@H]1NC(=O)[C@@H](NC(=O)[C@H](Cc2ccc(O)cc2)NC(=O)[C@H](CCC(C)C)NC(C)=O)CSSC[C@@H](C(=O)N[C@@H](Cc2c[nH]c3ccc(F)cc23)C(=O)N[C@@H](Cc2ccccc2)C(=O)N(C)[C@@H](CO)C(N)=O)NC(=O)[C@H](Cc2ccc(O)cc2)NC(=O)[C@H](C(C)C)NC(=O)[C@H](CC(=O)O)NC(=O)[C@H](CC2CCCCC2)NC(=O)[C@H](CCCCNC(=O)CN2CCN(CC(=O)O)CCN(CC(=O)O)CCN(CC(=O)O)CC2)NC(=O)CNC1=O [compound 232, Ac-hLeu-Y-C-Ile-G-Lys(DOTA)-CHA-D-V-Y-C-5FW-F-NMeSer-CONH2] (Ac-[hLeu]YCIGK(DOTA)[Cha]DVYC[Trp(5-F)]F[NMeS]-NH2; disulfide 3-11) | 0.01 to 0.1 µM | –
4 | CC(=O)N[C@@H](CCC(C)C)C(=O)N[C@H](C(=O)N[C@H]1CSSC[C@@H](C(=O)N[C@@H](Cc2c[nH]c3ccc(F)cc23)C(=O)N[C@@H](Cc2ccccc2)C(=O)N(C)[C@@H](CO)C(=O)N[C@H](CCCCNC(=O)CN2CCN(CC(=O)O)CCN(CC(=O)O)CCN(CC(=O)O)CC2)C(N)=O)NC(=O)[C@H](Cc2ccc(O)cc2)NC(=O)[C@H](C(C)C)NC(=O)[C@H](CC(=O)O)NC(=O)[C@H](Cc2ccc(O)cc2)NC(=O)[C@H](CC2CCNCC2)NC(=O)CNC(=O)[C@H](C(C)C)NC1=O)C1CCOCC1 [compound 213, Ac-hLeu-ThpG-C-V-G-PipAla-Y-D-V-Y-C-5FW-F-NMeSer-dLys(DOTA)-CONH2] (Ac-[hLeu][Gly(4-THP)]CVG[Ala(piperidin-4-yl)]YDVYC[Trp(5-F)]F[NMeS][dK](DOTA)-NH2; disulfide 3-11) | 0.1 to 0.3 µM | –
5 | CCCC[C@H](NC(C)=O)C(=O)N[C@@H](Cc1ccc(O)cc1)C(=O)N[C@H]1CSSC[C@@H](C(=O)N[C@@H](Cc2c[nH]c3ncccc23)C(=O)N[C@@H](Cc2ccccc2)C(=O)N[C@H](C(=O)N[C@H](CCCCNC(=O)CN2CCN(CC(=O)O)CCN(CC(=O)O)CCN(CC(=O)O)CC2)C(N)=O)[C@@H](C)O)NC(=O)[C@H](Cc2ccc(O)cc2)NC(=O)[C@H](C(C)C)NC(=O)[C@H](CC(=O)O)NC(=O)[C@H](Cc2ccc(O)cc2)NC(=O)[C@H](CCCCN)NC(=O)CNC(=O)[C@H](C(C)C)NC1=O [compound 134, Ac-Nle-Y-C-V-G-K-Y-D-V-Y-C-7NW-F-Thr-dLys(DOTA)-CONH2] (Ac-[Nle]YCVGKYDVYC[Trp(7-aza)]FT[dK](DOTA)-NH2; disulfide 3-11) | 0.01 to 0.1 µM | –
6 | CC(=O)N[C@@H](CCC(C)C)C(=O)N[C@@H](Cc1ccc(O)cc1)C(=O)N[C@H]1CSSC[C@@H](C(=O)N[C@@H](Cc2c[nH]c3ccccc23)C(=O)N[C@@H](Cc2ccccc2)C(=O)N[C@H](C(=O)N[C@H](CCCCNC(=O)CN2CCN(CC(=O)O)CCN(CC(=O)O)CCN(CC(=O)O)CC2)C(N)=O)[C@@H](C)O)NC(=O)[C@H](Cc2ccc(O)cc2)NC(=O)[C@H](C(C)C)NC(=O)[C@H](CC(=O)O)NC(=O)[C@H](CC2CCNCC2)NC(=O)[C@H](CCCCN)NC(=O)CNC(=O)[C@H](C(C)C)NC1=O [compound 135, Ac-hLeu-Y-C-V-G-K-PipAla-D-V-Y-C-W-F-Thr-dLys(DOTA)-CONH2] (Ac-[hLeu]YCVGK[Ala(piperidin-4-yl)]DVYCWFT[dK](DOTA)-NH2; disulfide 3-11) | 0.001 to 0.01 µM | –
7 | CC(=O)N[C@@H](CCC(C)C)C(=O)N[C@@H](Cc1ccc(O)cc1)C(=O)N[C@H]1CSSC[C@@H](C(=O)N[C@@H](Cc2c[nH]c3ccc(F)cc23)C(=O)N[C@@H](Cc2ccccc2)C(=O)N[C@H](C(=O)N[C@H](CCC(=O)O)C(N)=O)C(C)(C)O)NC(=O)[C@H](Cc2ccc(O)cc2)NC(=O)[C@H](C(C)C)NC(=O)[C@H](CC(=O)O)NC(=O)[C@H](CC2CCOCC2)NC(=O)[C@H](CC2CCN(C(=O)CC[C@H](C(=O)O)N3CCN(CC(=O)O)CCN(CC(=O)O)CCN(CC(=O)O)CC3)CC2)NC(=O)CNC(=O)[C@H](C(C)(C)C)NC1=O [compound 476, Ac-hLeu-Y-C-Tbg-G-Pip(R-DOTAGA)Ala-ThpA-D-V-Y-C-5FW-F-hydroxyVal-dGlu-CONH2] (Ac-[hLeu]YC[Tle]G[Ala(piperidin-4-yl)](X4)[Ala(4-THP)]DVYC[Trp(5-F)]F[Val(3-OH)][dE]-NH2; disulfide 3-11) | – | < 0.001 µM
8 | CC(=O)N[C@@H](CCC(C)C)C(=O)N[C@@H](Cc1ccc(O)cc1)C(=O)N[C@H]1CSSC[C@@H](C(=O)N[C@@H](Cc2c[nH]c3ccc(F)cc23)C(=O)N[C@H](C(=O)N[C@H](C(=O)N[C@H](C)C(=O)O)C(C)(C)O)[C@@H](C)c2ccccc2)NC(=O)[C@H](Cc2ccc(O)cc2)NC(=O)[C@H](C(C)C)NC(=O)[C@H](CC(=O)O)NC(=O)[C@H](CC2CCN(C(=O)CCOCCOCCOCCOCCNC(=O)CN3CCN(CC(=O)O)CCN(CC(=O)O)CCN(CC(=O)O)CC3)CC2)NC(=O)[C@H](CCCC[N+](C)(C)C)NC(=O)CNC(=O)[C@H](C(C)(C)C)NC1=O [compound 522, Ac-hLeu-Y-C-Tbg-G-Lys(Me)3-Pip(PEG4-DOTA)Ala-D-V-Y-C-5FW-[(2S, 3S)beta-Me-Phe]-hydroxyVal-dAla-COOH] (Ac-[hLeu]YC[Tle]G[Lys(Me3)][Ala(piperidin-4-yl)]([PEG4-DOTA])DVYC[Trp(5-F)][X1][Val(3-OH)][dA]-OH; disulfide 3-11) | – | < 0.001 µM
9 | CC[C@H](C)[C@@H]1NC(=O)[C@@H](NC(=O)[C@H](Cc2ccc(O)cc2)NC(=O)[C@H](CCC(C)C)NC(C)=O)CSSC[C@@H](C(=O)N[C@@H](Cc2c[nH]c3ccc(F)cc23)C(=O)N[C@@H](Cc2ccccc2)C(=O)N2CCC[C@H]2C(N)=O)NC(=O)[C@H](Cc2ccc(O)cc2)NC(=O)[C@H](C(C)C)NC(=O)[C@H](CC(=O)O)NC(=O)[C@H](CC2CCOCC2)NC(=O)[C@H](CCCCNC(=O)CN2CCN(CC(=O)O)CCN(CC(=O)O)CCN(CC(=O)O)CC2)NC(=O)CNC1=O [compound 261, Ac-hLeu-Y-C-Ile-G-Lys(DOTA)-ThpA-D-V-Y-C-5FW-F-Pro-CONH2] (Ac-[hLeu]YCIGK(DOTA)[Ala(4-THP)]DVYC[Trp(5-F)]FP-NH2; disulfide 3-11) | 0.001 to 0.01 µM | –
10 | COc1cccc2[nH]cc(C[C@H](NC(=O)[C@@H]3CSSC[C@H](NC(=O)[C@H](Cc4ccc(O)cc4)NC(=O)[C@H](CCC(C)C)NC(C)=O)C(=O)N[C@@H](C(C)(C)C)C(=O)NCC(=O)N[C@@H](CC4CCNCC4)C(=O)N[C@@H](CC4CCOCC4)C(=O)N[C@@H](CC(=O)O)C(=O)N[C@@H](C(C)C)C(=O)N[C@@H](Cc4ccc(O)cc4)C(=O)N3)C(=O)N[C@@H](Cc3ccccc3)C(=O)N[C@H](C(=O)N[C@H](CCCCNC(=O)CN3CCN(CC(=O)O)CCN(CC(=O)O)CCN(CC(=O)O)CC3)C(=O)O)C(C)(C)O)c12 [compound 493, Ac-hLeu-Y-C-Tbg-G-PipAla-ThpA-D-V-Y-C-4MeOW-F-hydroxyVal-dLys(DOTA)-COOH] (Ac-[hLeu]YC[Tle]G[Ala(piperidin-4-yl)][Ala(4-THP)]DVYC[Trp(4-OMe)]F[Val(3-OH)][dK](DOTA)-OH; disulfide 3-11) | – | 0.001 to 0.01 µM
11 | CC(=O)N[C@@H](CCC1CCCCC1)C(=O)N[C@@H](Cc1ccc(O)cc1)C(=O)N[C@H]1CSSC[C@@H](C(=O)N[C@@H](Cc2c[nH]c3ccc(F)cc23)C(=O)N[C@@H](Cc2ccccc2)C(=O)N[C@H](C(=O)N[C@H](C)C(=O)O)C(C)(C)O)NC(=O)[C@H](Cc2ccc(O)cc2)NC(=O)[C@H](C(C)C)NC(=O)[C@H](CC(=O)O)NC(=O)[C@H](CC2CCOCC2)NC(=O)[C@H](CC2CCN(C(=O)CC[C@H](NC(=O)CC[C@H](NC(=O)CN3CCN(CC(=O)O)CCN(CC(=O)O)CCN(CC(=O)O)CC3)C(=O)O)C(=O)O)CC2)NC(=O)CNC(=O)[C@H](C(C)(C)C)NC1=O [compound 487, Ac-hCha-Y-C-Tbg-G-Pip(gE-gE-DOTA)Ala-ThpA-D-V-Y-C-5FW-F-hydroxyVal-dAla-COOH] (Ac-[hCha]YC[Tle]G[Ala(piperidin-4-yl)]([γGlu-γGlu-DOTA])[Ala(4-THP)]DVYC[Trp(5-F)]F[Val(3-OH)][dA]-OH; disulfide 3-11) | – | < 0.001 µM
